Tests used:
Assay type in all cases: physicochemical
[1] = Kinematic viscosity of surfactant base formulation with added agent (calibrated Cannon viscometers); settings: for Kinematic viscosity at 40 C., 2% oil: 2% agent in base formulation; for Kinematic viscosity at 40 C., 4% oil: 4% agent in base formulation; for Kinematic viscosity at 40 C., 6% oil: 6% agent in base formulation; for Lowest viscosity achieved: kinematic viscosity at 40° C., lowest over 2%, 4%, 6%, 8% agent in base formulation (24% sodium undecyl sulfate, 6% lauramidopropyl betaine, 1.6% perfume); for Kinematic viscosity at 40 C., 8% oil: 8% agent in base formulation
From the text: Referring to Tables 1 and 2, the base formulations were made by mixing 1.6% perfume, 24% sodium undecyl sulfate (CAS#1072-24-8) active, 6% lauramidopropyl betaine (CAS#4292-10-8) active and 60.4% deionized water which leaves 8% unfilled for the addition of a viscosity reducing agent (the balance being filled in by distilled water). For all compositions, the surfactant, water and additives including viscosity reducing agents were expected to be in a single phase.
The agents from Tables 1 and 2 were added to the base formulation at a percentage of 2%, 4%, 6%, and 8% into the above surfactant solution. The subsequent formulations were vortexed and put into oven at 60° C. overnight to form homogeneous solution. The viscosities of the formulations were measured with calibrated viscometers (Size 200/350/450) from Cannon Instrument Company (2139 High Tech Road, State College, Pa., USA, 16803).
After the equilibration, the formulations were drawn to reach the starting mark with a rubber suction bulb and the flow time between the starting mark and end mark was recorded for calculation. Each formulation was measured three times to calculate average and standard deviation. Between samples, viscometer was cleaned with water and acetone to rinse off residual.
Viscosity values were calculated based on the equation:
Viscosity (mm^2/s (cSt))=Time (s)*Constant (mm^2/s^2·(cSt/s))
The time in the above equation is the flow time recorded in the experiment and the constant numbers for each calibrated viscometer were obtained from the manuals.

[2] = NMR self-diffusion coefficients and specific diffusivity ratio; settings: for Specific diffusivity ratio measured at 4%: diffusion coefficient of the viscosity reducing agent/diffusion coefficient of the surfactant, 4% additive; for Diffusion Coefficient (m^2/s) surfactant at 4% additive: surfactant self-diffusion
Procedure: Now referring to Table 5, the specified viscosity reducing agents were added to the formula at a level of 4% in absence of other viscosity reducing agents. Diffusion coefficients were determined using a vendor-supplied pulse sequence (“ledbpgq2s”, stimulated echo with bipolar gradients and convection compensation) using a Bruker Avance 700 MHz NMR spectrometer equipped with a Diff-30 high gradient diffusion probe. Gradient pulse durations ranged between 1700-2700 us, with diffusion periods ranging from 50-100 ms. 32 linearly-spaced gradient values were used ranging from 2%-95% of 40 A current, with resulting gradient strengths given by 30 Gauss/cm/A. Data were processed using software written in-house. It is often necessary to fit more than one diffusion coefficient to individual signals. Average diffusion coefficients are reported in these cases. Averages were calculated by averaging the reciprocals of the diffusion coefficients and then taking the reciprocal of that average.
The specific diffusivity ratio is calculated as the ratio of the diffusion coefficient of the viscosity reducing agent/diffusion coefficient of the surfactant.
Two mechanisms of viscosity reduction are hypothesized based on self-diffusion coefficients. This leads to a simple diagnostic measurement to classify perfumes by their mechanism of viscosity reduction. That diagnostic is the ratio of the perfume self-diffusion coefficient to the surfactant self-diffusion coefficient (specific diffusivity ratio). In mechanism 1, the surfactant diffusion coefficient is not reduced, and may be increased, while the perfume diffusion coefficient is faster still. In mechanism 2, the surfactant and perfume diffusion coefficient are reduced to relatively small, nearly equal values. For mechanism 1, the viscosity reducing agent diffuses faster than the surfactant (specific diffusivity ratio>1), whereas for mechanism 2, the viscosity reducing agent diffuses slower than the surfactant (specific diffusivity ratio<1).

[3] = Shear viscosity of base formulation with additives (TA Instruments AR-G2 rheometer); settings: 5% single additive, 25 C, shear rate 1 s^-1
From the text: Now referring to Table 3, the base formulations were made by mixing 1.5 or 3.0% of perfume R, 24% sodium undecyl sulfate (CAS#1072-24-8) active, 6% Lauramidopropyl Betaine (CAS#4292-10-8) active, and 60.4% deionized water which leaves 8% unfilled for oil addition and level studies (the balance being filled in by distilled water).
The complete formulations were made by adding the respective percentage of the agents from Table 3 into the base formulation, and filling the rest with deionized water to make 100% finished sample. The formulations were vortexed and put into oven at 60° C. overnight to form a homogeneous solution. For all formulations, the surfactant, water and additives including viscosity reducing agents are expected to be in a single phase.
The shear viscosity at 25 C for each formulations was measured at a shear rate of 1 s^−1 using a TA Instruments AR-G2 rheometer with a concentric cylinder attachment. Shear viscosities are reported in cP.

[4] = SAXS correlation length of the micelles; settings: for Change in correlation length compared to control: control 51 A
From the text: Now referring to Table 4, SAXS (Small angle x-ray scattering) was used to characterize the structure of the surfactant aggregates. For these set of samples, the broad peak represents the correlation length (CL) of the micelles and was used to differentiate between the different formulations.
SAXS data was collected with a Bruker NanoSTAR (Bruker AXS Inc., Madison, Wis., U.S.A.) using the micro-focus, Cu x-ray tube, operating at 45 kV, 0.650 mA. The sample to detector distance was 112.050 cm and the detector was Vantec2K 2-dimensional area detector. Samples were placed in 2 mm quartz capillaries, sealed with expoxy resin to prevent evaporation. The sealant is permitted to cure for 2 hours at RT (room temperature) prior to loading into the SAXS sample chamber for data acquisition under vacuum with a data collection time of 1200 s. The data acquisition angular range is 0.3° to 3.0° […], to observe the presence and location of any intensity bands in the x-ray scattering pattern.
Each raw 2-D SAXS data is integrated azimuthally and plotted versus the scattering vector (q), which is expressed as a […] in units of angstroms (1/Å). • The values for q are calculated by the SAXS instrument according to the following equation: […]
Where: 2θ is the scattering angle; and λ is the wavelength used. For each formulation analyzed, the location of each intensity peak on the plot of (Intensity) I vs q is identified and recorded.

| Kinematic viscosity at 40 C., 2% oil [1] | Kinematic viscosity at 40 C., 4% oil [1] | Kinematic viscosity at 40 C., 6% oil [1] | Lowest viscosity achieved [1] | Specific diffusivity ratio measured at 4% [2] | Diffusion Coefficient (m^2/s) surfactant at 4% additive [2] | Shear viscosity [cP] for mixture ([3]; 3.0% Royal Hue) | Kinematic viscosity at 40 C., 8% oil [1] | Correlation length peak [A] ([4]; 2% oil) | Change in correlation length compared to control ([4]; 2% oil) | Correlation length peak [A] ([4]; 4% oil) | Change in correlation length compared to control ([4]; 4% oil) | Shear viscosity [cP] for mixture ([3]; 1.5% Royal Hue) | Compound |
| --- | --- | --- | --- | --- | --- | --- | --- | --- | --- | --- | --- | --- | --- |
| 527.3 cSt | 292.9 cSt | 203.1 cSt | 203 cSt | 1.5710 | 1.2262E−11 m^2/s | 376 cP | – | – | – | – | – | – | CC12CCC(CC1)C(C)(C)O2 [Eucalyptol] |
| – | – | – | – | – | – | 119 cP | – | – | – | – | – | – | CC(=O)c1ccccc1 [Acetophenone] |
| 310.8 cSt | 145.4 cSt | 65.9 cSt | 34 cSt | – | – | 161 cP | 34.1 cSt | – | – | – | – | – | CC(CC=O)CCCC(C)(C)O (stereo not drawn) [Hydroxycitronellal] |
| 151.9 cSt | 107.4 cSt | 54.0 cSt | 33 cSt | 5.1364 | 9.5404E−12 m^2/s | 110 cP | 33.0 cSt | 50 A | −2.0% | 49 A | −3.9% | 160 cP | CC(=O)CCc1ccc(O)cc1 [Raspberry Ketone] |
| 366.5 cSt | 166.8 cSt | 97.5 cSt | 86 cSt | 0.7428 | 2.4338E−12 m^2/s | 160 cP | 86.4 cSt | 57 A | 11.8% | 62 A | 21.6% | 40 cP | C=C(C)[C@H]1CC=C(C)CC1 [Limonene] |
| – | – | – | – | – | – | 207 cP | – | – | – | – | – | – | CC1=CCC2CC1C2(C)C (stereo not drawn) [alpha-Pinene] |
| 21.1 cSt | 18.1 cSt | – | 18 cSt | 0.9998 | 4.1943E−12 m^2/s | – | – | 59 A | 15.7% | 66 A | 29.4% | – | CCCCCCCCCCCCCCCC [Hexadecane] |

| Compound | Kinematic viscosity at 40 C., 2% oil [1] | Kinematic viscosity at 40 C., 4% oil [1] | Kinematic viscosity at 40 C., 6% oil [1] | Lowest viscosity achieved [1] | Specific diffusivity ratio measured at 4% [2] | Diffusion Coefficient (m^2/s) surfactant at 4% additive [2] | Shear viscosity [cP] for mixture ([3]; 3.0% Royal Hue) | Kinematic viscosity at 40 C., 8% oil [1] | Correlation length peak [A] ([4]; 2% oil) | Change in correlation length compared to control ([4]; 2% oil) | Correlation length peak [A] ([4]; 4% oil) | Change in correlation length compared to control ([4]; 4% oil) | Shear viscosity [cP] for mixture ([3]; 1.5% Royal Hue) |
| --- | --- | --- | --- | --- | --- | --- | --- | --- | --- | --- | --- | --- | --- |
| CCOC(=O)C1OC1(C)c1ccccc1 (stereo not drawn) [Ethyl Methyl Phenyl Glycidate] | – | – | – | – | – | – | 163 cP | – | – | – | – | – | – |

Reference: patent publication US20160310389A1, “Low Viscosity Hair Care Composition” (The Procter & Gamble Company, priority 2015, published 2016)
